From US12194039B2, “Methods of treating heart failure by administering omecamtiv mecarbil” (Cytokinetics, Inc., priority 2020, dated 2025)
“Also recorded” adds a separate entry of the source. Like-named read-outs stand apart in the source and are kept apart here.

Experiments:
[1] = system: patients with or without more advanced HF; assay type: in vivo, human; details: for KCCQ total symptom score (TSS), increase: inpatient; for KCCQ total symptom score (TSS), increase / KCCQ total symptom score (TSS), decrease: vs placebo; for KCCQ total symptom score (TSS), decrease: outpatient
Text: Patients having more advanced heart failure (HF): In some aspects, provided is a method of treating a patient having more advanced HF by administering omecamtiv mecarbil as described herein. More advanced HF, also referred to as severe HF, refractory HF, or Stage D HF, can be determined based on a number of criteria recognized in the medical field. In some embodiments, more advanced HF refers to the published criteria from the 2018 ESC-HFA position statement (European journal of heart failure. 2018; 20:1505-1535). For the ESC-HFA criteria, patients were required to have all of 1) NYHA class III-IV symptoms, 2) a left ventricular ejection fraction 30%, 3) 2 or more hospitalizations for HF within the prior 12 months, and 4) evidence of severe functional impairment as defined by cardiopulmonary exercise testing or 6-minute walk test. In some embodiments, the hospitalization criteria is modified to one HF hospitalization within the prior 6 months In some embodiments, more advanced HF refers to patients having all of 1) NYHA class III-IV symptoms, 2) a left ventricular ejection fraction 30%, and 3) 1 or more hospitalizations for HF within the prior 6 months.
Baseline characteristics for patients classified as more advanced HF compared to those without were evaluated using appropriate summary statistics. Outcomes for patients with or without more advanced HF were compared using Cox proportional hazards models and Kaplan-Meier curves. […] Absolute event rates were described using rate per 100 patient-years. As a sensitivity analysis, the event rates and treatment effect of omecamtiv mecarbil for patients was assessed by specific advanced HF criteria met, as well as the total number of criteria met. For quality-of-life data as assessed by the Kansas City Cardiomyopathy Questionnaire Total Symptom Score (KCCQ TSS), linear regression adjusted for baseline scores was used to compare treatment effects of omecamtiv mecarbil compared to placebo. Safety and tolerability data for patients with advanced HF vs. those without were summarized using descriptive statistics. P value ≤0.05 was considered statistically significant for all analyses.

[2] = system: patients with HFrEF; details: result in words, cited from earlier work
[3] = Advanced HF, week 0 to 24, OM vs placebo
[4] = Less Advanced Heart Failure, OM group
[5] = Less Advanced Heart Failure, OM vs placebo
[6] = More Advanced Heart Failure, OM group
[7] = More Advanced Heart Failure, OM vs placebo

COC(=O)N1CCN(Cc2cccc(NC(=O)Nc3ccc(C)nc3)c2F)CC1 [omecamtiv mecarbil]
Creatinine ([1]; Advanced HF, OM group, week 24): 1.37 ± 0.55 mg/dL
NT-proBNP ([1]; Advanced HF, OM group, week 24): 1837 [856, pg/ml
Systolic BP ([1]; Advanced HF, OM group, week 24): 116.7 ± 17.3 mm Hg
NT-proBNP (Ratio) [1, 3]: 0.86
Troponin I (Ratio) [1, 3]: 1.30
All-cause Death (%) [1, 4]: (23%)
All-cause Death Rate [1, 4]: 12.4 per 100 patient years
All-cause Death n/N [1, 4]: 692/3014
HF Hosp as 1st Primary Event (%) [1, 4]: (24%)
HF Hosp as 1st Primary Event Rate [1, 4]: 15.0 per 100 patient years
HF Hosp as 1st Primary Event n/N [1, 4]: 722/3014
Heart Failure Hospitalization (%) [1, 4]: (25%)
Heart Failure Hospitalization Rate [1, 4]: 15.4 per 100 patient years
Heart Failure Hospitalization n/N [1, 4]: 746/3014
Primary Outcome (%) [1, 4]: (34%)
Primary Outcome Rate [1, 4]: 21.1 per 100 patient years
Primary Outcome n/N [1, 4]: 1013/3014
Urgent Outpatient Visit as 1st Primary Event (%) [1, 4]: (2%)
Urgent Outpatient Visit as 1st Primary Event Rate [1, 4]: 1.1 per 100 patient years
Urgent Outpatient Visit as 1st Primary Event n/N [1, 4]: 52/3014
All-cause Death ARR [1, 5]: 0.6 per 100 patient years
All-cause Death HR (95% CI) [1, 5]: 1.05 (0.94, 1.17);
Heart Failure Hospitalization ARR [1, 5]: −0.1 per 100 patient years
Heart Failure Hospitalization HR (95% CI) [1, 5]: 1.01 (0.91, 1.12);
Primary Outcome ARR [1, 5]: 0.2 per 100 patient years
Primary Outcome HR (95% CI) [1, 5]: 0.99 (0.91, 1.08);
All-cause Death (%) [1, 6]: (34%)
All-cause Death Rate [1, 6]: 20.1 per 100 patient years
All-cause Death n/N [1, 6]: 365/1081
HF Hosp as 1st Primary Event (%) [1, 6]: (35%)
HF Hosp as 1st Primary Event Rate [1, 6]: 25.9 per 100 patient years
HF Hosp as 1st Primary Event n/N [1, 6]: 385/1106
Heart Failure Hospitalization (%) [1, 6]: (36%)
Heart Failure Hospitalization Rate [1, 6]: 26.2 per 100 patient years
Heart Failure Hospitalization n/N [1, 6]: 385/1081
Primary Endpoint (%) [1, 6]: (46%)
Primary Endpoint Rate [1, 6]: 34.3 per 100 patient years
Primary Endpoint n/N [1, 6]: 510/1106
Urgent Outpatient Visit as 1st Primary Event (%) [1, 6]: (2%)
Urgent Outpatient Visit as 1st Primary Event Rate [1, 6]: 1.2 per 100 patient years
Urgent Outpatient Visit as 1st Primary Event n/N [1, 6]: 18/1106
All-cause Death ARR [1, 7]: 1.5 per 100 patient years
All-cause Death HR (95% CI) [1, 7]: 0.92 (0.80, 1.06);
Heart Failure Hospitalization ARR [1, 7]: 5.2 per 100 patient years
Heart Failure Hospitalization HR (95% CI) [1, 7]: 0.84 (0.73, 0.96);
Primary Endpoint ARR [1, 7]: 8.3 per 100 patient years
Primary Endpoint HR (95% CI) [1, 7]: 0.80 (0.71, 0.90);
NT-proBNP ([1]; Non-Advanced HF, OM group, week 24): 1274 [531, pg/ml
NT-proBNP (Ratio) ([1]; Non-Advanced HF, week 0 to 24, OM vs placebo): 0.91
KCCQ total symptom score (TSS), increase ([1]; advanced HF): 1.1
KCCQ total symptom score (TSS), decrease ([1]; advanced HF): 1.7
Myocardial infarctions ([1]; human, in vivo): 3.8%
Serious adverse events related to ventricular tachyarrhythmias ([1]; human, in vivo): 7.9%
Strokes ([1]; human, in vivo): 1.6%
Treatment emergent serious adverse events ([1]; human, in vivo): 67%
Circulating cardiac troponin ([1]; in vivo): small increase
Creatinine ([1]; in vivo): 1.29 ± 0.49 mg/dL
Heart rate lowering, difference in change vs placebo ([1]; in vivo): 1.9 beats/minute
Systolic BP ([1]; in vivo): 118.4 ± 16.8 mm Hg
Troponin I (Ratio) ([1]; in vivo): 1.24
NT-proBNP ([1]; more advanced HF population, result in words): significant decrease
KCCQ total symptom score (TSS), increase ([1]; non-advanced HF): 3.3
KCCQ total symptom score (TSS), decrease ([1]; non-advanced HF): 0.2
Cardiovascular mortality, hazard ratio ([1]; patients with less advanced HF): 1.10
Absolute risk reduction, primary endpoint ([1]; patients with more advanced HF): 8.3 events/100 patient-years
Cardiovascular mortality, hazard ratio ([1]; patients with more advanced HF): 0.88
Primary endpoint, hazard ratio ([1]; patients with more advanced HF): 0.80
Relative risk reduction, primary endpoint ([1]; patients with more advanced HF): 20%
Primary endpoint, hazard ratio ([1]; patients without more advanced HF): 0.99
NNT ([1]; primary endpoint, patients with more advanced HF): 12
Left ventricular systolic and diastolic volumes, natriuretic peptide concentrations and heart rate ([2]; oral therapy for 20 weeks, chronic HFrEF): reduced left ventricular systolic and diastolic volumes, plasma natriuretic peptide concentrations and heart rate; also recorded: decreased left ventricular systolic and diastolic volumes
Cardiac performance ([2]; short-term intravenous and longer-term oral therapy): improved cardiac performance
